Experimental findings from US20230107642A1 (Erasca, Inc., priority 2020, published 2023) are described below.

This assay concerns the target T1, Cys12 of the KRAS 4B G12C protein (Homo sapiens, UniProt P01116, G12C).
T1 construct: This protein contained 188 amino acids in total, including an N-terminal 6-Histidine tag; made in house; host or cells: E. coli BL21
Description: In vitro covalent adduct formation (CAF) assay, LC-MS intact mass. The format is binding. The settings on record: after 60 min. The method in brief: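 GDP-loaded (>95%) His-TEV-tagged KRAS 4B G12C (residues 1–169), 5 μM in TBS pH 7.4, incubated with 10 μM compound (4% DMSO) at 22° C for one hour. Intact-protein LC-MS gave free:adduct ratios, reported as percent protein modified; duplicate runs.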

For the compound `C=CC(=O)N1[C@H](C)CN(c2nc(=O)n3c4c(c(-c5ccc(F)c(Cl)c5)c(C(F)(F)F)cc24)SC[C@H](OCOC)C3)C[C@@H]1C` [Example 1013, (R)-8-((3S,5R)-4-acryloyl-3,5-dimethylpiperazin-1-yl)-11-(3-chloro-4-fluorophenyl)-3-(methoxymethoxy)-10-(trifluoromethyl)-3,4-dihydro-2H,6H-[1,4]thiazepino[2,3,4-ij]quinazolin-6-one], the “CAF (% binding after 60 min)” value amounted to 95%. Take `C=CC(=O)N1[C@H](C)CN(c2nc(=O)n3c4c(c(-c5ccc(F)c(Cl)c5)c(C(F)(F)F)cc24)SC[C@@H](OCOC)C3)C[C@@H]1C` [Example 1014, (S)-8-((3S,5R)-4-acryloyl-3,5-dimethylpiperazin-1-yl)-11-(3-chloro-4-fluorophenyl)-3-(methoxymethoxy)-10-(trifluoromethyl)-3,4-dihydro-2H,6H-[1,4]thiazepino[2,3,4-ij]quinazolin-6-one]: the “CAF (% binding after 60 min)” value is listed as 96%. The same measure for `C=CC(=O)N1[C@H](C)CN(c2nc(=O)n3c4c(c(-c5cc(Cl)c(F)cc5F)c(C(F)(F)F)cc24)SC[C@@H](OCOC)C3)C[C@@H]1C` [Example 1015, (3S)-8-((3S,5R)-4-acryloyl-3,5-dimethylpiperazin-1-yl)-11-(5-chloro-2,4-difluorophenyl)-3-(methoxymethoxy)-10-(trifluoromethyl)-3,4-dihydro-2H,6H-[1,4]thiazepino[2,3,4-ij]quinazolin-6-one]: 84%. The same measure for `C=CC(=O)N1CCN(c2nc(=O)n3c4c(c(-c5ccc(F)cc5)c(C(F)(F)F)cc24)SC[C@H](OCCOC)C3)CC1` [Example 1016, (R)-8-(4-acryloylpiperazin-1-yl)-11-(4-fluorophenyl)-3-(2-methoxyethoxy)-10-(trifluoromethyl)-3,4-dihydro-2H,6H-[1,4]thiazepino[2,3,4-ij]quinazolin-6-one]: 98%; for `C=CC(=O)N1CCN(c2nc(=O)n3c4c(c(-c5ccc(F)cc5)c(C(F)(F)F)cc24)SC[C@@H](OCCOC)C3)CC1` [Example 1017, (S)-8-(4-acryloylpiperazin-1-yl)-11-(4-fluorophenyl)-3-(2-methoxyethoxy)-10-(trifluoromethyl)-3,4-dihydro-2H,6H-[1,4]thiazepino[2,3,4-ij]quinazolin-6-one]: 98%; for `C=CC(=O)N1CCN(c2nc(=O)n3c4c(c(-c5ccc(F)cc5F)c(C(F)(F)F)cc24)SC[C@H](OCCOC)C3)CC1` [Example 1018, (3R)-8-(4-acryloylpiperazin-1-yl)-11-(2,4-difluorophenyl)-3-(2-methoxyethoxy)-10-(trifluoromethyl)-3,4-dihydro-2H,6H-[1,4]thiazepino[2,3,4-ij]quinazolin-6-one]: 96%.

Regarding `C=CC(=O)N1CCN(c2nc(=O)n3c4c(c(-c5ccc(F)cc5F)c(C(F)(F)F)cc24)SC[C@@H](OCCOC)C3)CC1` [Example 1019, (3S)-8-(4-acryloylpiperazin-1-yl)-11-(2,4-difluorophenyl)-3-(2-methoxyethoxy)-10-(trifluoromethyl)-3,4-dihydro-2H,6H-[1,4]thiazepino[2,3,4-ij]quinazolin-6-one], the “CAF (% binding after 60 min)” value was 97%. For `C=CC(=O)N1CCN(c2nc(=O)n3c4c(c(-c5ccc(F)c(Cl)c5)c(C(F)(F)F)cc24)SC[C@H](OCCOC)C3)CC1` [Example 1020, (R)-8-(4-acryloylpiperazin-1-yl)-11-(3-chloro-4-fluorophenyl)-3-(2-methoxyethoxy)-10-(trifluoromethyl)-3,4-dihydro-2H,6H-[1,4]thiazepino[2,3,4-ij]quinazolin-6-one] the value was 97%; for `C=CC(=O)N1CCN(c2nc(=O)n3c4c(c(-c5ccc(F)c(Cl)c5)c(C(F)(F)F)cc24)SC[C@@H](OCCOC)C3)CC1` [Example 1021, (S)-8-(4-acryloylpiperazin-1-yl)-11-(3-chloro-4-fluorophenyl)-3-(2-methoxyethoxy)-10-(trifluoromethyl)-3,4-dihydro-2H,6H-[1,4]thiazepino[2,3,4-ij]quinazolin-6-one], 97%.

For `C=CC(=O)N1CCN(c2nc(=O)n3c4c(c(-c5cc(Cl)c(F)cc5F)c(C(F)(F)F)cc24)SC[C@H](OCCOC)C3)CC1` [Example 1022, (3R)-8-(4-acryloylpiperazin-1-yl)-11-(5-chloro-2,4-difluorophenyl)-3-(2-methoxyethoxy)-10-(trifluoromethyl)-3,4-dihydro-2H,6H-[1,4]thiazepino[2,3,4-ij]quinazolin-6-one], the “CAF (% binding after 60 min)” value was determined as 85%. For `C=CC(=O)N1CCN(c2nc(=O)n3c4c(c(-c5cc(Cl)c(F)cc5F)c(C(F)(F)F)cc24)SC[C@@H](OCCOC)C3)CC1` [Example 1023, (3S)-8-(4-acryloylpiperazin-1-yl)-11-(5-chloro-2,4-difluorophenyl)-3-(2-methoxyethoxy)-10-(trifluoromethyl)-3,4-dihydro-2H,6H-[1,4]thiazepino[2,3,4-ij]quinazolin-6-one] the value was 97%; for `C=CC(=O)N1[C@H](C)CN(c2nc(=O)n3c4c(c(-c5ccc(F)cc5)c(C(F)(F)F)cc24)SC[C@H](OCCOC)C3)C[C@@H]1C` [Example 1024, (R)-8-((3S,5R)-4-acryloyl-3,5-dimethylpiperazin-1-yl)-11-(4-fluorophenyl)-3-(2-methoxyethoxy)-10-(trifluoromethyl)-3,4-dihydro-2H,6H-[1,4]thiazepino[2,3,4-ij]quinazolin-6-one], 97%. The same measure for `C=CC(=O)N1[C@H](C)CN(c2nc(=O)n3c4c(c(-c5ccc(F)cc5)c(C(F)(F)F)cc24)SC[C@@H](OCCOC)C3)C[C@@H]1C` [Example 1025, (S)-8-((3S,5R)-4-acryloyl-3,5-dimethylpiperazin-1-yl)-11-(4-fluorophenyl)-3-(2-methoxyethoxy)-10-(trifluoromethyl)-3,4-dihydro-2H,6H-[1,4]thiazepino[2,3,4-ij]quinazolin-6-one]: 96%; for `C=CC(=O)N1[C@H](C)CN(c2nc(=O)n3c4c(c(-c5ccc(F)cc5F)c(C(F)(F)F)cc24)SC[C@H](OCCOC)C3)C[C@@H]1C` [Example 1026, (3R)-8-((3S,5R)-4-acryloyl-3,5-dimethylpiperazin-1-yl)-11-(2,4-difluorophenyl)-3-(2-methoxyethoxy)-10-(trifluoromethyl)-3,4-dihydro-2H,6H-[1,4]thiazepino[2,3,4-ij]quinazolin-6-one]: 95%. The same measure for `C=CC(=O)N1[C@H](C)CN(c2nc(=O)n3c4c(c(-c5ccc(F)cc5F)c(C(F)(F)F)cc24)SC[C@@H](OCCOC)C3)C[C@@H]1C` [Example 1027, (3S)-8-((3S,5R)-4-acryloyl-3,5-dimethylpiperazin-1-yl)-11-(2,4-difluorophenyl)-3-(2-methoxyethoxy)-10-(trifluoromethyl)-3,4-dihydro-2H,6H-[1,4]thiazepino[2,3,4-ij]quinazolin-6-one 3,4-dihydro-2H,6H-[1,4]thiazepino[2,3,4-ij]quinazolin-6-one]: 96%; for `C=CC(=O)N1[C@H](C)CN(c2nc(=O)n3c4c(c(-c5ccc(F)c(Cl)c5)c(C(F)(F)F)cc24)SC[C@H](OCCOC)C3)C[C@@H]1C` [Example 1028, (R)-8-((3S,5R)-4-acryloyl-3,5-dimethylpiperazin-1-yl)-11-(3-chloro-4-fluorophenyl)-3-(2-methoxyethoxy)-10-(trifluoromethyl)-3,4-dihydro-2H,6H-[1,4]thiazepino[2,3,4-ij]quinazolin-6-one]: 96%. Consider `C=CC(=O)N1[C@H](C)CN(c2nc(=O)n3c4c(c(-c5ccc(F)c(Cl)c5)c(C(F)(F)F)cc24)SC[C@@H](OCCOC)C3)C[C@@H]1C` [Example 1029, (S)-8-((3S,5R)-4-acryloyl-3,5-dimethylpiperazin-1-yl)-11-(3-chloro-4-fluorophenyl)-3-(2-methoxyethoxy)-10-(trifluoromethyl)-3,4-dihydro-2H,6H-[1,4]thiazepino[2,3,4-ij]quinazolin-6-one], for which the “CAF (% binding after 60 min)” value came to 96%.

Regarding `C=CC(=O)N1[C@H](C)CN(c2nc(=O)n3c4c(c(-c5cc(Cl)c(F)cc5F)c(C(F)(F)F)cc24)SC[C@H](OCCOC)C3)C[C@@H]1C` [Example 1030, (3R)-8-((3S,5R)-4-acryloyl-3,5-dimethylpiperazin-1-yl)-11-(5-chloro-2,4-difluorophenyl)-3-(2-methoxyethoxy)-10-(trifluoromethyl)-3,4-dihydro-2H,6H-[1,4]thiazepino[2,3,4-ij]quinazolin-6-one], the “CAF (% binding after 60 min)” value is listed as 96%.

For `C=CC(=O)N1[C@H](C)CN(c2nc(=O)n3c4c(c(-c5cc(Cl)c(F)cc5F)c(C(F)(F)F)cc24)SC[C@@H](OCCOC)C3)C[C@@H]1C` [Example 1031, (3S)-8-((3S,5R)-4-acryloyl-3,5-dimethylpiperazin-1-yl)-11-(5-chloro-2,4-difluorophenyl)-3-(2-methoxyethoxy)-10-(trifluoromethyl)-3,4-dihydro-2H,6H-[1,4]thiazepino[2,3,4-ij]quinazolin-6-one], the “CAF (% binding after 60 min)” value turned out to be 95%. For `C=CC(=O)N1[C@H](C)CN(c2nc(=O)n3c4c(c(-c5ccc(F)cc5)c(C(F)(F)F)cc24)SC[C@@H](N)C3)C[C@@H]1C` [Example 1032, (S)-8-((3S,5R)-4-acryloyl-3,5-dimethylpiperazin-1-yl)-3-amino-11-(4-fluorophenyl)-10-(trifluoromethyl)-3,4-dihydro-2H,6H-[1,4]thiazepino[2,3,4-ij]quinazolin-6-one], the “CAF (% binding after 60 min)” value is on record as 92%. For `C=CC(=O)N1[C@H](C)CN(c2nc(=O)n3c4c(c(-c5ccc(F)cc5)c(C(F)(F)F)cc24)SC[C@@H](OCCN(C)C)C3)C[C@@H]1C` [Example 1033, (S)-8-((3S,5R)-4-acryloyl-3,5-dimethylpiperazin-1-yl)-3-(2-(dimethylamino)ethoxy)-11-(4-fluorophenyl)-10-(trifluoromethyl)-3,4-dihydro-2H,6H-[1,4]thiazepino[2,3,4-ij]quinazolin-6-one] the value was 96%.
